Tests used:
Type in all cases: cell-based
[1] = tested on: SKOV3 (human ovarian carcinoma); assay: CCK-8 cytotoxicity assay, SKOV3; conditions: SK-OV-3, 48 h, read-out: Cytotoxicity IC50 Ovarian SKOV3
Procedure: (§1) The cytotoxicity of the newly synthesized quinolinylphosphonates 7 was evaluated in vitro by testing their antiproliferative activities against several human cancer cell lines: A549 (human lung adenocarcinoma cells), SKOV3 (human ovarian carcinoma), and HEK293 (human embryonic kidney). In order to analyze the selective cytotoxicity facing exclusively cancerous cell lines, cytotoxicity against non-cancerous cell lines (MRC-5, lung fibroblast cells) was also evaluated. Cell counting kit (CCK-8) assay was employed to assess growth inhibition and, cell proliferation inhibitory activities of compounds that are listed in Table 1 as IC50 values. […] According to the data presented in Table 1, in general, all these phosphorated derivatives present higher selective cytotoxicity in the A549 cell line than in the other two cell lines, SKOV3 and HEK293, although slight differences are observed compared to human ovarian carcinoma (SKOV3).
(§2) Cells were cultured according to the supplier’s instructions, A549 (ATCC® CCL-185), SKOV3 (ATCC® HTB-77), HEK293 (CLS GmbH), MRC-5 (ATCC® CCL-171™). Cells were seeded in 96-well plates at a density of 2–2.5 × 10^3 cells per well and incubated overnight in 0.1 mL of media supplied with 10% Fetal Bovine Serum (Lonza, Basel, Switzerland) in a 5% CO2 incubator at 37 °C. On day 2, drugs (concentration between 0.5–50 μM) were added and samples were incubated for 48 h. After treatment, 10 μL of cell counting kit-8 was added to each well for an additional 2 h incubation at 37 °C. The absorbance of each well was determined by an Automatic Elisa Reader System at 450 nm wavelength. CPT was purchased from Sigma-Aldrich and used as a positive control.

[2] = CCK-8 cytotoxicity assay, MRC-5 non-cancerous cells; conditions: human, MRC-5 non-malignant lung fibroblasts
Procedure: as §1, §2

[3] = tested on: L. infantum promastigotes; assay: In vitro iRFP-L. infantum promastigotes viability assay; conditions: Leishmania infantum; 96 h exposure, EC50 ± SD
Procedure: (§3) The effect of the new quinolinylphosphonate derivatives 7 synthesized was assessed on both free-living promastigotes and intramacrophage amastigotes of L. infantum as it is described in experimental protocols. Primary cultures of intramacrophage amastigotes were obtained from splenic explants from 6-weeks infected Balb/c mice with L. infantum-iRFP promastigotes. The infrared fluorescence emitted by both stage forms of the parasite was used as viability criterium, using 0.5% DMSO as negative control (100% viability) and […] AMB as a positive control (0% viability).
A genetically modified strain of L infantum BCN 150, expressing iRFP protein from Rhodopseudomonas palustris bacteriophytochrome (iRFP-L. infantum), was used to obtain the EC50 values of the different compounds against promastigotes, through the detection of the near-infrared radiation emitted by living parasites exposed to tested molecules. Thus, the viability of promastigotes was calculated after recording their fluorescence at 708 nm in an Odyssey (Li-Cor, NE, USA) infrared imaging.
iRFP-L. infantum promastigotes were cultured using M199 medium (Gibco, Thermo Fisher Scientific, MA, USA), supplemented with 25 mM 4-(2-hydroxyethyl)-1-piperazineethanesulfonic acid (HEPES) pH 6.9, […] hemin, 10 mM glutamine, 0.1 mM adenosine, 0.01 mM folic acid, 1× RPMI 1640 vitamin mix (Sigma, Darmstadt, Germany), 10% (v/v) heat-inactivated foetal bovine serum (Gibco, Thermo Fisher Scientific, MA, USA), 50 U/mL penicillin and 50 µg/mL streptomycin. The assay was carried out, seeding 1 × 10^6 cells/mL of iRFP-L. infantum promastigotes into 96-well optical bottom black plates (Thermo Scientific, MA, USA) along with different concentrations of compound to each well. The final concentration of DMSO, the solvent used to prepare the stock solutions of compounds, was never higher than 0.1%. All of the compounds’ concentrations and controls were assayed by triplicate.

L. infantum amastigotes = assay: Ex vivo murine splenic explant culture, intramacrophage amastigotes; conditions: Leishmania infantum, Hec50; intramacrophage amastigotes in splenic explants, 96 h, EC50 ± SD
Procedure: as §3
The EC50 values of compounds against the amastigote forms were calculated using a cell suspension obtained from spleens extracted from BALB/c mice. Mice had been infected previously with iRFP L. infantum metacyclic promastigotes and sacrificed five weeks after infection. To obtain the cell suspension containing amastigotes, spleens washed with cold phosphate-buffered saline (PBS), were cut into pieces, and incubated with 5 mL of 2 mg/mL collagenase D (Sigma, Darmstadt, Germany), which was prepared in buffer (10 mM HEPES, pH 7.4, 150 mM NaCl, 5 mM KCl, 1 mM MgCl2 and 1.8 mM CaCl2) for 20 min. Subsequently, these cells were passed through a 100 µm cell strainer, collected by centrifugation (500× g for 7 min at 4 °C), washed twice with PBS, and suspended in RPMI medium (Gibco, Thermo Fisher Scientific, MA, USA) supplemented with 10 mM HEPES, 1 mM sodium pyruvate, 1xRPMI 1640 vitamin mix, 10% (v/v) FBS, 50 U/mL penicillin and 50 µg/mL streptomycin, at 37 °C under a 5% CO2 atmosphere.
To assay the effect of the different compounds against amastigotes, which infect splenic cells, these cells were seeded to confluence into 384-well black optical bottom plates (Thermo Scientific, Waltham, MA, USA) in addition to different concentrations of compound to each well. The viability of amastigotes was calculated by recording their fluorescence at 708 nm in an Odyssey (Li-Cor, NE, USA) infrared imaging system, after 96 h of exposure. Plots of the infrared fluorescence against the concentrations of tested compounds were fitted by nonlinear analysis using the Sigma Plot 10.1 statistical package and used to calculate EC50 values. As well as promastigotes viability, the assays were performed in triplicate.

CCOP(=O)(OCC)c1cccc2c(-c3ccccc3)cc(-c3ccc4ccccc4c3)nc12 [7e, Diethyl (2-(naphthalen-2-yl)-4-phenylquinolin-8-yl)phosphonate]
IC50 [1]: 1.33 ± 0.76 µM
IC50 at 48 h [2]: > 50 µM
EC50 [3]: 20.4 ± 1.57 µM
EC50 (L. infantum amastigotes): 20.4 ± 5.62 µM

— paper PMC8399847, “Hybrid Quinolinyl Phosphonates as Heterocyclic Carboxylate Isosteres: Synthesis and Biological Evaluation against Topoisomerase 1B (TOP1B)” (Pharmaceuticals, 2021)
